Target: T1, CDK1 (Homo sapiens, UniProt P06493)
T1 construct: made in house; host or cells: T7 phage in E. coli BL21-derived host, or HEK-293 cells
Test: Binding affinity to CDK1 (KdELECT assay)
Experimental: Exemplary compounds were tested for ability to bind to CDK1.
Compounds were tested using a KdELECT assay. Kinase-tagged T7 phage strains were prepared in an E. coli host derived from the BL21 strain. E. coli were grown to log-phase and infected with T7 phage and incubated with shaking at 32° C. until lysis. The lysates were centrifuged and filtered to remove cell debris. The remaining kinases were produced in HEK-293 cells and subsequently tagged with DNA for qPCR detection. Streptavidin-coated magnetic beads were treated with biotinylated small molecule ligands for 30 minutes at room temperature to generate affinity resins for kinase assays. The liganded beads were blocked with excess biotin and washed with blocking buffer (SeaBlock (Pierce), 1% BSA, 0.05% Tween 20, 1 mM DTT) to remove unbound ligand and to reduce non-specific binding. Binding reactions were assembled by combining kinases, liganded affinity beads, and test compounds in 1× binding buffer (20% SeaBlock, 0.17×PBS, 0.05% Tween 20, 6 mM DTT). Test compounds were prepared as 11 IX stocks in 100% DMSO. Kd values were determined using an 11-point 3-fold compound dilution series with three DMSO control points. All compounds for Kd measurements are distributed by acoustic transfer (non-contact dispensing) in 100% DMSO. […] The kinase concentration in the eluates was measured by qPCR.

T1 sequence (P06493 whole entry): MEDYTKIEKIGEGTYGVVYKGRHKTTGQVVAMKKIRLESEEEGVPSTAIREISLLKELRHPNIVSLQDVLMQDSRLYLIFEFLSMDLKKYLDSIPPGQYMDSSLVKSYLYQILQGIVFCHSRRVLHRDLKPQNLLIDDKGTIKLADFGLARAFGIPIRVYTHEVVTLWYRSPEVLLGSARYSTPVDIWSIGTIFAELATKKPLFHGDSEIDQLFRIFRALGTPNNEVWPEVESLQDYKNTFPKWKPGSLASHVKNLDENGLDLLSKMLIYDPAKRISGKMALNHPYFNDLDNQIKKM

Row | Kd | SMILES
1 | 50 to 500 nM | CCN(CCOCCOCCOCCOCCOCCOCCNS(=O)(=O)c1ccc(Nc2ncc(Br)c(Nc3cccc(F)c3C(N)=O)n2)cc1)CCOc1ccc(C(=O)c2c(-c3ccc(O)cc3)sc3cc(O)ccc23)cc1 [I-42]
2 | 50 to 500 nM | CCN(CCOCCOCCNS(=O)(=O)c1ccc(Nc2ncc(Br)c(Nc3cccc(F)c3C(N)=O)n2)cc1)CCOc1ccc(C(=O)c2c(-c3ccc(O)cc3)sc3cc(O)ccc23)cc1 [I-40]

Source: patent US12558428B2, “Heterobifunctional compounds and their use in treating disease” (Halda Therapeutics OpCo, Inc., priority 2024, dated 2026)
